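48-hour exposure; five concentrations; linearly interpolated endpoints. Definition used: TGI = concentration required for complete inhibition of growth.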
How the values were obtained:
Test in all cases: NCI anticancer screen, dose series, 48 h
COLO 205 colon = test system: COLO 205 colon
HL-60(TB) leukemia = test system: HL-60(TB) leukemia
HT29 colon = test system: HT29 colon
MALME-3M melanoma = test system: MALME-3M melanoma
NCI-H226 lung = test system: NCI-H226 lung
NCI-H23 lung = test system: NCI-H23 lung
OVCAR-3 ovarian = test system: OVCAR-3 ovarian
OVCAR-5 ovarian = test system: OVCAR-5 ovarian
RXF 393 renal = test system: RXF 393 renal
SF-295 CNS = test system: SF-295 CNS
SK-MEL-2 melanoma = test system: SK-MEL-2 melanoma
SNB-75 CNS = test system: SNB-75 CNS
TK-10 renal = test system: TK-10 renal
A498 renal = test system: A498 renal
HS 578T breast = test system: HS 578T breast
NCI/ADR-RES ovarian = test system: NCI/ADR-RES ovarian
T-47D breast = test system: T-47D breast

O=C1C(Cl)C(c2ccccc2Cl)N1n1cnc2ccccc2c1=O (stereo not drawn)
TGI (COLO 205 colon): > 100 µM
TGI (HL-60(TB) leukemia): 57.4 µM
TGI (HT29 colon): > 100 µM
TGI (MALME-3M melanoma): > 100 µM
TGI (NCI-H226 lung): 91.4 µM
TGI (NCI-H23 lung): > 100 µM
TGI (OVCAR-3 ovarian): > 100 µM
TGI (OVCAR-5 ovarian): > 100 µM
TGI (RXF 393 renal): 67.3 µM
TGI (SF-295 CNS): > 100 µM
TGI (SK-MEL-2 melanoma): 68.4 µM
TGI (SNB-75 CNS): 59.4 µM
TGI (TK-10 renal): > 100 µM

CCOC(=O)c1cc(=O)c2cccc3c2n1CCS3
TGI (A498 renal): > 100 µM
TGI (COLO 205 colon): > 100 µM
TGI (HL-60(TB) leukemia): > 100 µM
TGI (HS 578T breast): > 100 µM
TGI (HT29 colon): > 100 µM
TGI (NCI-H226 lung): > 100 µM
TGI (NCI-H23 lung): > 100 µM
TGI (NCI/ADR-RES ovarian): > 100 µM
TGI (OVCAR-3 ovarian): > 100 µM
TGI (OVCAR-5 ovarian): > 100 µM
TGI (SF-295 CNS): > 100 µM
TGI (SK-MEL-2 melanoma): > 100 µM
TGI (SNB-75 CNS): > 100 µM
TGI (T-47D breast): > 100 µM
TGI (TK-10 renal): > 100 µM

CCOC(=O)C1CCCc2sc(N)c(C#N)c21 (stereo not drawn)
TGI (A498 renal): > 100 µM
TGI (COLO 205 colon): > 100 µM
TGI (HL-60(TB) leukemia): > 100 µM
TGI (HS 578T breast): > 100 µM
TGI (HT29 colon): > 100 µM
TGI (MALME-3M melanoma): > 100 µM
TGI (NCI-H226 lung): > 100 µM
TGI (NCI-H23 lung): > 100 µM
TGI (OVCAR-5 ovarian): > 100 µM
TGI (RXF 393 renal): > 100 µM
TGI (SK-MEL-2 melanoma): > 100 µM
TGI (SNB-75 CNS): > 100 µM
TGI (T-47D breast): > 100 µM
TGI (TK-10 renal): > 100 µM

CCOC(=O)c1c(CN2CCNCC2)nc2ccc(Cl)cc2c1-c1ccccc1
TGI (A498 renal): 23.4 µM
TGI (COLO 205 colon): 4.16 µM
TGI (HL-60(TB) leukemia): 4.38 µM
TGI (HT29 colon): 3.68 µM
TGI (MALME-3M melanoma): 3.56 µM
TGI (NCI-H226 lung): 33.4 µM
TGI (NCI-H23 lung): 25.7 µM
TGI (OVCAR-3 ovarian): 20.2 µM
TGI (OVCAR-5 ovarian): 36 µM
TGI (RXF 393 renal): 10.7 µM
TGI (SF-295 CNS): 5.97 µM
TGI (SK-MEL-2 melanoma): 3.36 µM
TGI (SNB-75 CNS): 9.5 µM
TGI (T-47D breast): 20.6 µM
TGI (TK-10 renal): 10.8 µM

CCc1cccc(C(C)C)c1NC(=O)/C(=N\NC(N)=O)C(C(=O)OC)c1cnc2ccccc2n1 (stereo not drawn)
TGI (A498 renal): > 100 µM
TGI (COLO 205 colon): 49.6 µM
TGI (HL-60(TB) leukemia): 79.6 µM
TGI (HT29 colon): > 100 µM
TGI (MALME-3M melanoma): 76.4 µM
TGI (NCI-H226 lung): > 100 µM
TGI (NCI-H23 lung): 57.5 µM
TGI (OVCAR-3 ovarian): 60.3 µM
TGI (OVCAR-5 ovarian): > 100 µM
TGI (RXF 393 renal): > 100 µM
TGI (SF-295 CNS): > 100 µM
TGI (SK-MEL-2 melanoma): > 100 µM
TGI (SNB-75 CNS): > 100 µM
TGI (TK-10 renal): > 100 µM

Cc1cc(N(CCC#N)CCC#N)ccc1/C=C1N=C(/C=C\c2ccccc2)N(NC(=O)CC(=O)Nc2ccccc2Cl)C\1=O
TGI (A498 renal): > 100 µM
TGI (COLO 205 colon): > 100 µM
TGI (HL-60(TB) leukemia): > 100 µM
TGI (HT29 colon): > 100 µM
TGI (MALME-3M melanoma): > 100 µM
TGI (NCI-H226 lung): > 100 µM
TGI (NCI-H23 lung): > 100 µM
TGI (OVCAR-3 ovarian): > 100 µM
TGI (OVCAR-5 ovarian): > 100 µM
TGI (SF-295 CNS): > 100 µM
TGI (SK-MEL-2 melanoma): > 100 µM
TGI (SNB-75 CNS): > 100 µM
TGI (TK-10 renal): > 100 µM

CCOC(=O)C(C)NC(=O)NC12CC3CC(CC(F)(C3)C1)C2 (stereo not drawn)
TGI (A498 renal): > 100 µM
TGI (COLO 205 colon): > 100 µM
TGI (HL-60(TB) leukemia): > 100 µM
TGI (HT29 colon): > 100 µM
TGI (MALME-3M melanoma): > 100 µM
TGI (NCI-H23 lung): > 100 µM
TGI (OVCAR-3 ovarian): > 100 µM
TGI (OVCAR-5 ovarian): > 100 µM
TGI (RXF 393 renal): 86.6 µM
TGI (SK-MEL-2 melanoma): > 100 µM
TGI (SNB-75 CNS): > 100 µM
TGI (TK-10 renal): > 100 µM

CC(C)N(C(=O)C12C3C4C5C3C1(C(=O)O)C5C42)C(C)C (stereo not drawn)
TGI (A498 renal): > 100 µM
TGI (COLO 205 colon): > 100 µM
TGI (HL-60(TB) leukemia): > 100 µM
TGI (HT29 colon): > 100 µM
TGI (MALME-3M melanoma): > 100 µM
TGI (NCI-H23 lung): > 100 µM
TGI (OVCAR-3 ovarian): > 100 µM
TGI (OVCAR-5 ovarian): > 100 µM
TGI (SF-295 CNS): > 100 µM
TGI (SK-MEL-2 melanoma): > 100 µM
TGI (SNB-75 CNS): > 100 µM
TGI (TK-10 renal): > 100 µM

From PubChem BioAssay (NCI)
